Consider 4 compounds from PMC9974463 (Proceedings of the National Academy of Sciences of the …, 2023).

The target of one assay is T1, AbCphZ (Acinetobacter baylyi, UniProt Q6FCQ4, E251A).
T1 sequence (Q6FCQ4 1-383 E251A): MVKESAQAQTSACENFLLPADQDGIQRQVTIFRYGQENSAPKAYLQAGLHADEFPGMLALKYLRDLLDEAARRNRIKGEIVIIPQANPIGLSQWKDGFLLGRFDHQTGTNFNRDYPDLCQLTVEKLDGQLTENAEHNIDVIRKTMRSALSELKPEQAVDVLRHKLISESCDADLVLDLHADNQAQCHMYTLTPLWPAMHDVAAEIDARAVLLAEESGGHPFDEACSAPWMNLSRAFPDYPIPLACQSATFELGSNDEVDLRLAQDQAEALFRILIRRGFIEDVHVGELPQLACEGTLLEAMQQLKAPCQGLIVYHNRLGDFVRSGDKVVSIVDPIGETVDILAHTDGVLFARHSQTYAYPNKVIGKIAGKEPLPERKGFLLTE
Kind of assay: isothermal titration calorimetry. In kind it is binding.

A further assay concerns the target T2, PaAotO (Pseudomonas aeruginosa, UniProt O50184).
T2 sequence (O50184 1-370): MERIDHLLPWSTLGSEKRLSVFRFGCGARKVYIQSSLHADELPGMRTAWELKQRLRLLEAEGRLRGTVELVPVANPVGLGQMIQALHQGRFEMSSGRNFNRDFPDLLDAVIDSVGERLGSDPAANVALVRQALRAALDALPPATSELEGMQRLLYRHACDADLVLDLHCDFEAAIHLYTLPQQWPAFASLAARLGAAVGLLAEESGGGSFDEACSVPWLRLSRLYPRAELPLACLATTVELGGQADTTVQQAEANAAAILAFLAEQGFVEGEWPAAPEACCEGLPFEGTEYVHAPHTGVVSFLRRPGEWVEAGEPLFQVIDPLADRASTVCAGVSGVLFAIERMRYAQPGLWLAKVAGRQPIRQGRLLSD
Kind of assay: Arg release coupled assay. Type of assay: biochemical. The following applies: 1 mM substrate, 500 nM enzyme.

In assay [1] the target is Acinetobacter baylyi cyanophycin dipeptide hydrolase CphZ (Acinetobacter baylyi DSM587). In words: SEC. Background: In gel filtration, larger molecules generally elute earlier.
Assay [2] has as its target AbCphZ E251A (Acinetobacter baylyi DSM587). Kind of assay: ITC. In general terms: In ITC the heat of successive injections is recorded.

Take `N=C(N)NCCC[C@H](N)C(=O)O` [Arg]: at AbCphZ, the Kd is 471 ± 16.8 µM.
In turn, `N=C(N)NCCC[C@H](NC(=O)C[C@H](N)C(=O)O)C(=O)O` [β-Asp-Arg] yielded an equilibrium dissociation constant (Kd) at AbCphZ of 7.6 ± 0.1 µM. The “Arg release coupled assay (340 nm)” value at PaAotO is “AotO is specific for β-Asp-Arg and hydrolyzes it at a rate comparable to AbCphZ”.
In assay [1], “Acinetobacter baylyi cyanophycin dipeptide hydrolase CphZ (enzyme)” registered a stoichiometry N of 2.
In assay [2], β-Asp-Arg dipeptide yielded a Kd of 7.6 µM.

In general, Kd refers to a measure of binding affinity in units of concentration. Low values mean higher affinity, high ones lower affinity. The stoichiometry N is the number of molecules, sites or subunits per partner or assembly.
